Results taken from patent US20250171438A1 (Agios Pharmaceuticals, Inc., priority 2022, published 2025).
Structures can show the parent of a compound that is named as a salt.

Molecular target: T1, human PAH with the R408W mutation (Homo sapiens, UniProt P00439, R408W)
T1 construct: expressed in transfected cells
T1 sequence (P00439 1-452 R408W): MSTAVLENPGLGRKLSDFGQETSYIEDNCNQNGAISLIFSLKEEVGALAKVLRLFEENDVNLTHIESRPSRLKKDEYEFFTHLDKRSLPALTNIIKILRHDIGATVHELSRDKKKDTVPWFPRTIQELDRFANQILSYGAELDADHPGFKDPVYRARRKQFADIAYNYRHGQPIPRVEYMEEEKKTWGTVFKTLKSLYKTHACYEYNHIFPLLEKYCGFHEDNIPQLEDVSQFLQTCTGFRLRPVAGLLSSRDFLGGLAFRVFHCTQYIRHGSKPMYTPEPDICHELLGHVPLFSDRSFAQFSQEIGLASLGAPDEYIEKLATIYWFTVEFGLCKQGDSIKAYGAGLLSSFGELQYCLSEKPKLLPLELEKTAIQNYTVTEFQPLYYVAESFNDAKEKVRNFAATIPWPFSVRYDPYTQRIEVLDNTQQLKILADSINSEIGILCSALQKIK
Assay: Cell Based Phenylalanine Flux Assay
Conditions: A375 cells expressing human R408W PAH; 24 hrs with compound; 13C-Tyrosine by LC-MS; average where tested multiple times; read-out: AC50
Method: Compounds were resuspended in DMSO, and 2-fold serial dilutions were performed to generate a 10-point dose curve. Compounds were added to plated cells in a total volume of 100 pal, and a final DMSO concentration of 0.5%. Each compound was tested in duplicate. Following compound addition, cells were placed in a 5% CO2, 37° C. tissue culture incubator for 24 hrs. After the incubation period, 20 μM sepiapterin and 800 μM 13C9,15N-Phenylalanine were added. After 4 hours, cell media was removed. An aliquot of 10 μl of cell media was combined with 200 μl of extraction buffer (80% acetonitrile/20% H2O) for each well. Determination of ^13C-Tyrosine concentration was assessed by liquid chromatography mass spectrometry.
Where a compound was tested multiple times, the average value of the tests is reported.

Compound | AC50 [µM]
N#Cc1ccn2ncc(C(=O)N3CCc4[nH]cnc4[C@H]3c3nc4ccccc4[nH]3)c2c1 [(S)-3-(4-(1H-benzo[d]imidazol-2-yl)-4,5,6,7-tetrahydro-1H-imidazo[4,5-c]pyridine-5-carbonyl)pyrazolo[1,5-a]pyridine-5-carbonitrile] | > 5
O=C(c1nc2ccccc2[nH]1)N1CCc2[nH]cnc2[C@H]1c1nc2ccccc2[nH]1 [(S)-(4-(1H-benzo[d]imidazol-2-yl)-1,4,6,7-tetrahydro-5H-imidazo[4,5-c]pyridin-5-yl)(1H-benzo[d]imidazol-2-yl)methanone] | 1 to 5
O=C(c1n[nH]c2ccccc12)N1CCc2[nH]cnc2[C@H]1c1nc2ccccc2[nH]1 [(S)-(4-(1H-benzo[d]imidazol-2-yl)-1,4,6,7-tetrahydro-5H-imidazo[4,5-c]pyridin-5-yl)(1H-indazol-3-yl)methanone] | > 5
COc1cccc(C(=O)N2CCc3[nH]cnc3[C@H]2c2nc3ccccc3[nH]2)c1 [(S)-(4-(1H-benzo[d]imidazol-2-yl)-1,4,6,7-tetrahydro-5H-imidazo[4,5-c]pyridin-5-yl)(3-methoxyphenyl)methanone] | 1 to 5
O=C(c1nc2c(F)cccc2s1)N1CCc2[nH]cnc2[C@H]1c1nc2ccccc2[nH]1 [(S)-(4-(1H-benzo[d]imidazol-2-yl)-1,4,6,7-tetrahydro-5H-imidazo[4,5-c]pyridin-5-yl)(4-fluorobenzo[d]thiazol-2-yl)methanone] | 1 to 5
O=C(c1cnn2cccc(F)c12)N1CCc2[nH]cnc2[C@H]1c1nc2ccccc2[nH]1 [(S)-(4-(1H-benzo[d]imidazol-2-yl)-1,4,6,7-tetrahydro-5H-imidazo[4,5-c]pyridin-5-yl)(4-fluoropyrazolo[1,5-a]pyridin-3-yl)methanone] | 1 to 5
Cc1csc(C(=O)N2CCc3[nH]cnc3[C@H]2c2nc3ccccc3[nH]2)n1 [(S)-(4-(1H-benzo[d]imidazol-2-yl)-1,4,6,7-tetrahydro-5H-imidazo[4,5-c]pyridin-5-yl)(4-methylthiazol-2-yl)methanone] | 1 to 5
O=C(c1cnn2cc(Br)ccc12)N1CCc2[nH]cnc2[C@H]1c1nc2ccccc2[nH]1 [(S)-(4-(1H-benzo[d]imidazol-2-yl)-1,4,6,7-tetrahydro-5H-imidazo[4,5-c]pyridin-5-yl)(6-bromopyrazolo[1,5-a]pyridin-3-yl)methanone] | 1 to 5
O=C(c1ccccn1)N1CCc2[nH]cnc2[C@H]1c1nc2ccccc2[nH]1 [(S)-(4-(1H-benzo[d]imidazol-2-yl)-1,4,6,7-tetrahydro-5H-imidazo[4,5-c]pyridin-5-yl)(pyridin-2-yl)methanone] | 1 to 5
O=C(c1cc2cccnn2c1)N1CCc2[nH]cnc2[C@H]1c1nc2ccccc2[nH]1 [(S)-(4-(1H-benzo[d]imidazol-2-yl)-1,4,6,7-tetrahydro-5H-imidazo[4,5-c]pyridin-5-yl)(pyrrolo[1,2-b]pyridazin-6-yl)methanone] | > 5
Cn1cc(-c2ncc(C(=O)N3CCc4[nH]cnc4[C@H]3c3nc4ccccc4[nH]3)o2)cn1 [(S)-(4-(1H-benzo[d]imidazol-2-yl)-6,7-dihydro-1H-imidazo[4,5-c]pyridin-5(4H)-yl)(2-(1-methyl-1H-pyrazol-4-yl)oxazol-5-yl)methanone hydrochloride] | > 5
Cn1cc(-c2ncc(C(=O)N3CCc4[nH]cnc4[C@H]3c3nc4ccccc4[nH]3)s2)cn1 [(S)-(4-(1H-benzo[d]imidazol-2-yl)-6,7-dihydro-1H-imidazo[4,5-c]pyridin-5(4H)-yl)(2-(1-methyl-1H-pyrazol-4-yl)thiazol-5-yl)methanone] | > 5
Cc1nc(C(C)(C)O)oc1C(=O)N1CCc2[nH]cnc2[C@H]1c1nc2ccccc2[nH]1 [(S)-(4-(1H-benzo[d]imidazol-2-yl)-6,7-dihydro-1H-imidazo[4,5-c]pyridin-5(4H)-yl)(2-(2-hydroxypropan-2-yl)-4-methyloxazol-5-yl)methanone] | > 5
CC(C)(O)c1ncc(C(=O)N2CCc3[nH]cnc3[C@H]2c2nc3ccccc3[nH]2)o1 [(S)-(4-(1H-benzo[d]imidazol-2-yl)-6,7-dihydro-1H-imidazo[4,5-c]pyridin-5(4H)-yl)(2-(2-hydroxypropan-2-yl)oxazol-5-yl)methanone] | > 5
O=C(c1cnc(-c2ccccn2)o1)N1CCc2[nH]cnc2[C@H]1c1nc2ccccc2[nH]1 [(S)-(4-(1H-benzo[d]imidazol-2-yl)-6,7-dihydro-1H-imidazo[4,5-c]pyridin-5(4H)-yl)(2-(pyridin-2-yl)oxazol-5-yl)methanone] | 1 to 5
CC(C)(O)c1nc(C2CC2)c(C(=O)N2CCc3[nH]cnc3[C@H]2c2nc3ccccc3[nH]2)o1 [(S)-(4-(1H-benzo[d]imidazol-2-yl)-6,7-dihydro-1H-imidazo[4,5-c]pyridin-5(4H)-yl)(4-cyclopropyl-2-(2-hydroxypropan-2-yl)oxazol-5-yl)methanone] | 1 to 5
O=C(c1cnn2ccc(Cl)cc12)N1CCc2[nH]cnc2[C@H]1c1nc2ccccc2[nH]1 [(S)-(4-(1H-benzo[d]imidazol-2-yl)-6,7-dihydro-1H-imidazo[4,5-c]pyridin-5(4H)-yl)(5-chloropyrazolo[1,5-a]pyridin-3-yl)methanone] | 1 to 5
O=C(c1nc2cc(F)ccc2s1)N1CCc2[nH]cnc2[C@H]1c1nc2ccccc2[nH]1 [(S)-(4-(1H-benzo[d]imidazol-2-yl)-6,7-dihydro-1H-imidazo[4,5-c]pyridin-5(4H)-yl)(5-fluorobenzo[d]thiazol-2-yl)methanone] | 1 to 5
COc1ccn2ncc(C(=O)N3CCc4[nH]cnc4[C@H]3c3nc4ccccc4[nH]3)c2c1 [(S)-(4-(1H-benzo[d]imidazol-2-yl)-6,7-dihydro-1H-imidazo[4,5-c]pyridin-5(4H)-yl)(5-methoxypyrazolo[1,5-a]pyridin-3-yl)methanone] | 1 to 5
Cc1ccn2ncc(C(=O)N3CCc4[nH]cnc4[C@H]3c3nc4ccccc4[nH]3)c2c1 [(S)-(4-(1H-benzo[d]imidazol-2-yl)-6,7-dihydro-1H-imidazo[4,5-c]pyridin-5(4H)-yl)(5-methylpyrazolo[1,5-a]pyridin-3-yl)methanone] | 1 to 5
O=C(c1nc2ccc(F)cc2s1)N1CCc2[nH]cnc2[C@H]1c1nc2ccccc2[nH]1 [(S)-(4-(1H-benzo[d]imidazol-2-yl)-6,7-dihydro-1H-imidazo[4,5-c]pyridin-5(4H)-yl)(6-fluorobenzo[d]thiazol-2-yl)methanone] | 1 to 5

Other lines, results leading:

AC50 [µM] | Compound
1 to 5 | O=C(Cc1cncs1)N1CCc2[nH]cnc2[C@H]1c1nc2ccccc2[nH]1 [(S)-1-(4-(1H-benzo[d]imidazol-2-yl)-6,7-dihydro-1H-imidazo[4,5-c]pyridin-5(4H)-yl)-2-(thiazol-5-yl)ethanone]
1 to 5 | Cc1cnc(C(=O)N2CCc3[nH]cnc3[C@H]2c2nc3ccccc3[nH]2)s1 [(S)-(4-(1H-benzo[d]imidazol-2-yl)-1,4,6,7-tetrahydro-5H-imidazo[4,5-c]pyridin-5-yl)(5-methylthiazol-2-yl)methanone]
1 to 5 | O=C(C1CCCCC1)N1CCc2[nH]cnc2[C@H]1c1nc2ccccc2[nH]1 [(S)-(4-(1H-benzo[d]imidazol-2-yl)-1,4,6,7-tetrahydro-5H-imidazo[4,5-c]pyridin-5-yl)(cyclohexyl)methanone]
1 to 5 | O=C(C1CCCC1)N1CCc2[nH]cnc2[C@H]1c1nc2ccccc2[nH]1 [(S)-(4-(1H-benzo[d]imidazol-2-yl)-1,4,6,7-tetrahydro-5H-imidazo[4,5-c]pyridin-5-yl)(cyclopentyl)methanone]
1 to 5 | O=C(C1CC1)N1CCc2[nH]cnc2[C@H]1c1nc2ccccc2[nH]1 [(S)-(4-(1H-benzo[d]imidazol-2-yl)-1,4,6,7-tetrahydro-5H-imidazo[4,5-c]pyridin-5-yl)(cyclopropyl)methanone]
1 to 5 | O=C(c1ccsn1)N1CCc2[nH]cnc2[C@H]1c1nc2ccccc2[nH]1 [(S)-(4-(1H-benzo[d]imidazol-2-yl)-1,4,6,7-tetrahydro-5H-imidazo[4,5-c]pyridin-5-yl)(isothiazol-3-yl)methanone]
1 to 5 | O=C(c1cnsc1)N1CCc2[nH]cnc2[C@H]1c1nc2ccccc2[nH]1 [(S)-(4-(1H-benzo[d]imidazol-2-yl)-1,4,6,7-tetrahydro-5H-imidazo[4,5-c]pyridin-5-yl)(isothiazol-4-yl)methanone]
1 to 5 | O=C(c1ccns1)N1CCc2[nH]cnc2[C@H]1c1nc2ccccc2[nH]1 [(S)-(4-(1H-benzo[d]imidazol-2-yl)-1,4,6,7-tetrahydro-5H-imidazo[4,5-c]pyridin-5-yl)(isothiazol-5-yl)methanone]
1 to 5 | O=C(c1ccon1)N1CCc2[nH]cnc2[C@H]1c1nc2ccccc2[nH]1 [(S)-(4-(1H-benzo[d]imidazol-2-yl)-1,4,6,7-tetrahydro-5H-imidazo[4,5-c]pyridin-5-yl)(isoxazol-3-yl)methanone]
1 to 5 | O=C(c1ncco1)N1CCc2[nH]cnc2[C@H]1c1nc2ccccc2[nH]1 [(S)-(4-(1H-benzo[d]imidazol-2-yl)-1,4,6,7-tetrahydro-5H-imidazo[4,5-c]pyridin-5-yl)(oxazol-2-yl)methanone]
1 to 5 | O=C(c1cnco1)N1CCc2[nH]cnc2[C@H]1c1nc2ccccc2[nH]1 [(S)-(4-(1H-benzo[d]imidazol-2-yl)-1,4,6,7-tetrahydro-5H-imidazo[4,5-c]pyridin-5-yl)(oxazol-5-yl)methanone]
1 to 5 | O=C(c1cscn1)N1CCc2[nH]cnc2[C@H]1c1nc2ccccc2[nH]1 [(S)-(4-(1H-benzo[d]imidazol-2-yl)-1,4,6,7-tetrahydro-5H-imidazo[4,5-c]pyridin-5-yl)(thiazol-4-yl)methanone]
